Results reported in publication PMC4474394 (OncoTargets and therapy, 2015).

Test: In vivo biodistribution in NCI-H157-bearing BALB/c nude mice
Settings: 99mTc-labeled peptide, judged from weak accumulation in brain tissue

TMPFLFCNVNDVCNFASRNDYSKKK [T7]
Blood–brain barrier penetration: poor
